What all share (assay type): functional
Assay [1] concerns frog. Put plainly: Potency measured in frog where (-) indicates peptide is not long acting.
Assay [2] is described as follows: Activity expressed as EC50 was measured in frog.
Assay [3] deals with lizard. Nature of the assay: Potency of compound was measured in lizard; Inactive.
The test system of assay [4] is frog. Nature of the assay: Potency measured in frog where (+) indicates peptide is long acting.
Assay [5] in a line: Activity expressed as EC50 was measured in lizard.
The subject of assay [6] is lizard. Put plainly: Potency of compound was measured in lizard where (+) indicates peptide is prolonged acting.
The subject of assay [7] is frog. Nature of the assay: Potency of compound was measured in frog where (+) indicates peptide is prolonged acting and (-) indicates peptide is not prolonged acting.
Assay [8] relates to lizard. Nature of the assay: Potency measured in lizard where (+) indicates peptide is long acting and (-) indicates peptide is not long acting.
Assay [9] relates to lizard. Put plainly: Potency of compound was measured in lizard where (-) indicates peptide is not prolonged acting.
In assay [10] the test system is frog. Nature of the assay: Potency of compound was measured in frog; Inactive.
Assay [11] in a line: Activity of compound expressed as EC50 was measured in frog; Inactive.
Assay [12] is described as follows: Activity of compound expressed as EC50 was measured in lizard; Inactive.
The subject of assay [13] is frog. Put plainly: Potency of compound was measured in frog.

Active and inactive are the calls of the source. No cut-off for these calls is given here. Where a SMILES comes first, the peptide text is derived from it. [ ]: non-standard residue; d: D form.

In assay [1], `CCCC[C@H](NC(C)=O)C(=O)NC1CCCNC(=O)CC[C@H](C(=O)N[C@@H](Cc2c[nH]c3ccccc23)C(=O)NCC(=O)N[C@@H](CCCCN)C(N)=O)NC(=O)[C@@H](Cc2ccccc2)NC(=O)[C@@H](Cc2c[nH]cn2)NC1=O` (stereo in doubt) returned a Potency of 0.001. Also, in assay [2], the half-maximal effective concentration (EC50) came to 1000 nM. Moreover, the Potency result in [3] was “inactive”.
`CC(=O)N[C@H](Cc1ccccc1)C(=O)N[C@@H](CCCN=C(N)N)C(=O)N[C@@H](Cc1c[nH]c2ccccc12)C(N)=O` (Ac-[dF]-Arg-Trp-NH2): the values for the Potency in assay [4] and in assay [6] were 1e-05 and 0.001, respectively. Also, the EC50 in assay [2] came to 10000 nM; in [5], 1000 nM.
For `N=C(N)NCCC[C@H]1NC(=O)[C@@H](Cc2ccccc2)NC(=O)[C@@H](Cc2c[nH]cn2)NC(=O)CNC(=O)CNC(=O)[C@H](Cc2c[nH]c3ccccc23)NC1=O`, the EC50 in assay [2] stood at 1200 nM.
For `CC(=O)N[C@@H]1CSSC[C@H]2NC(=O)[C@@H](Cc3c[nH]c4ccccc34)NC(=O)[C@H](CCCN=C(N)N)NC(=O)[C@H](Cc3ccccc3)NC(=O)[C@H](Cc3c[nH]cn3)NC(=O)[C@@H](CC(=O)NCCCC[C@@H](C(N)=O)NC2=O)NC1=O`, the Potency in assay [7] amounted to 0.018; in assay [8], 0.03. For the same compound, the EC50 amounted to 6 nM in assay [2] and 33 nM in assay [5].
`CC(=O)N[C@@H]1CSSC[C@@H](C(N)=O)NC(=O)[C@@H]2CCCCNC(=O)C[C@@H](NC1=O)C(=O)N[C@@H](Cc1c[nH]cn1)C(=O)N[C@H](Cc1ccccc1)C(=O)N[C@@H](CCCN=C(N)N)C(=O)N[C@H](Cc1c[nH]c3ccccc13)C(=O)N2`: the values for the Potency in assay [4] and in assay [8] were 0.003 and 0.03, respectively. In addition, the EC50 in [2] and in [5] was 33 nM throughout.
On to `CC(=O)N[C@@H](Cc1c[nH]cn1)C(=O)N[C@@H](Cc1ccccc1)C(=O)N[C@@H](CCCN=C(N)N)C(=O)N[C@@H](Cc1c[nH]c2ccccc12)C(N)=O`, for which the Potency in [1] came to 5e-06; in assay [9], 0.0014. Moreover, the concentration giving a half-maximal response (EC50) in assay [2] was 30000 nM; in assay [5], 15000 nM.
For the compound `CC(=O)N[C@@H](Cc1cnc[nH]1)C(=O)N[C@H](Cc1ccccc1)C(=O)N[C@@H](CCCNC(=N)N)C(=O)N[C@@H](Cc1c[nH]c2ccccc12)C(N)=O`, the Potency in assay [1] turned out to be 0.001; in [9], 0.1. Further, the EC50 in assay [2] was determined as 150 nM; in assay [5] it was 10 nM.
With `CC(=O)N[C@@H](Cc1c[nH]cn1)C(=O)N[C@H](Cc1ccccc1)C(=O)N[C@@H](CCCN=C(N)N)C(N)=O`, the Potency entry in assay [10] and in assay [3] was “inactive” each time. Besides, the EC50 entry in assay [11] and in assay [12] was “Not Active” each time.
As to `CC(=O)N[C@@H]1CSSC[C@H](C(=O)N[C@H](CCCCN)C(N)=O)NC(=O)[C@@H](Cc2c[nH]c3ccccc23)NC(=O)[C@H](CCCN=C(N)N)NC(=O)C(Cc2ccccc2)NC(=O)[C@H](Cc2c[nH]cn2)NC(=O)[C@@H](CCC(=O)O)NC1=O` (stereo in doubt), the Potency in assay [1] is 2.5; in assay [9], 3. Moreover, the EC50 in assay [2] was 0.04 nM; in assay [5], 0.3 nM.
Turning to `CCCC[C@H](NC(C)=O)C(=O)N[C@@H]1CC(=O)NCCCC[C@H](C(N)=O)NC(=O)C(C)(C)NC(=O)[C@@H](Cc2c[nH]c3ccccc23)NC(=O)[C@H](CCCN=C(N)N)NC(=O)[C@@H](Cc2ccccc2)NC(=O)[C@@H](Cc2c[nH]cn2)NC1=O`, the Potency in assay [13] worked out at 1. A half-maximal response in assay [2] (EC50) required 0.1 nM.
On to `CC(=O)N[C@@H]1CSSC[C@H]2NC(=O)[C@@H](Cc3c[nH]c4ccccc34)NC(=O)[C@H](CCCN=C(N)N)NC(=O)[C@H](Cc3ccccc3)NC(=O)[C@H](Cc3c[nH]cn3)NC(=O)[C@@H](CCC(=O)NCCCC[C@@H](C(N)=O)NC2=O)NC1=O`, for which the Potency in [1] came out at 0.0035; in [8] it was 0.0025. Moreover, the EC50 in [2] amounted to 28 nM; in assay [5], 400 nM.
Regarding `CC(=O)N[C@@H]1CSSC[C@H]2NC(=O)[C@@H](Cc3c[nH]c4ccccc34)NC(=O)[C@H](CCCN=C(N)N)NC(=O)C(Cc3ccccc3)NC(=O)[C@H](Cc3c[nH]cn3)NC(=O)[C@@H](CC(=O)NCCCC[C@H](C(=O)N3CCC[C@@H]3C(=O)N[C@H](C(N)=O)C(C)C)NC2=O)NC1=O` (stereo in doubt), the values for the Potency in assay [4] and in assay [8] were 0.04 and 0.03, respectively. Moreover, the EC50 is 2.5 nM in assay [2] and 33 nM in assay [5].

The term EC50 denotes the midpoint of the concentration-response curve. A low value points to greater potency.

The record behind these values is ChEMBL document CHEMBL1128363, “Design, synthesis, biology, and conformations of bicyclic alpha-melanotropin analogues” (J Med Chem, 1995).
